Experimental data from patent US20240228469A1, “PCSK9 INHIBITORS AND METHODS OF USE THEREOF” (AstraZeneca AB, priority 2022, published 2024).

Tests used:
PCSK9 [1] = target: T1, PCSK9 (Homo sapiens, UniProt Q8NBP7, G670E/V474I); test: biochemical
[2] = target: GSK3β (Glycogen synthase kinase-3 beta) (Homo sapiens, UniProt P49841); test: Assay 6 GSK3β assay (ThermoFisher Z-Lyte FRET); type: biochemical; settings: ATP Conc: 10 μM, geometric mean; read-out: Assay 6 (GSK3β FRET-Z-Lyte Cr) GMean IC50
GSK3β (Glycogen synthase kinase-3 beta), sequence (P49841 whole entry): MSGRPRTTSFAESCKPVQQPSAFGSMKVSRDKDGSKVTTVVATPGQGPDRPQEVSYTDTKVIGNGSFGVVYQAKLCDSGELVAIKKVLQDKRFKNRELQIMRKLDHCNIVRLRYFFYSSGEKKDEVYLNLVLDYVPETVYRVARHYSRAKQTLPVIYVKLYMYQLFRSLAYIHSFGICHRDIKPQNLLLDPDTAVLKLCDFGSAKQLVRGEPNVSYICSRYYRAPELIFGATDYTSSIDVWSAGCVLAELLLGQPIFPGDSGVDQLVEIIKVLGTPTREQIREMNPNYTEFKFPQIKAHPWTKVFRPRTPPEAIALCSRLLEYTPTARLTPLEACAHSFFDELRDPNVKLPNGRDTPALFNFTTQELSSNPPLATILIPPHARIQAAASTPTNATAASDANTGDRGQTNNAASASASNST
In short: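 Z-Lyte FRET: 0.22-0.92 ng kinase with 2 μM Ser/Thr 09 peptide in HEPES pH 7.5, MgCl2, EGTA, 60 min at room temperature, then 60 min development. Compounds in 1% DMSO, 10-point 3-fold series from 10 μM; sigmoidal dose-response fit.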

[3] = target: T2, potassium ion channel hERG (Homo sapiens, UniProt Q12809); test: Assay 5 hERG assay (patch clamp, CHO cells over-expressing hERG); type: cell-based; settings: SyncroPatch 384PE, room temperature, geometric mean, read-out: Assay 5 (hERG Hu CHO if EPh CR-Syncro) GMean IC50
T2 construct: expressed in transfected cells; host or cells: Chinese hamster ovary K1 (CHO)
T2 sequence (Q12809 whole entry): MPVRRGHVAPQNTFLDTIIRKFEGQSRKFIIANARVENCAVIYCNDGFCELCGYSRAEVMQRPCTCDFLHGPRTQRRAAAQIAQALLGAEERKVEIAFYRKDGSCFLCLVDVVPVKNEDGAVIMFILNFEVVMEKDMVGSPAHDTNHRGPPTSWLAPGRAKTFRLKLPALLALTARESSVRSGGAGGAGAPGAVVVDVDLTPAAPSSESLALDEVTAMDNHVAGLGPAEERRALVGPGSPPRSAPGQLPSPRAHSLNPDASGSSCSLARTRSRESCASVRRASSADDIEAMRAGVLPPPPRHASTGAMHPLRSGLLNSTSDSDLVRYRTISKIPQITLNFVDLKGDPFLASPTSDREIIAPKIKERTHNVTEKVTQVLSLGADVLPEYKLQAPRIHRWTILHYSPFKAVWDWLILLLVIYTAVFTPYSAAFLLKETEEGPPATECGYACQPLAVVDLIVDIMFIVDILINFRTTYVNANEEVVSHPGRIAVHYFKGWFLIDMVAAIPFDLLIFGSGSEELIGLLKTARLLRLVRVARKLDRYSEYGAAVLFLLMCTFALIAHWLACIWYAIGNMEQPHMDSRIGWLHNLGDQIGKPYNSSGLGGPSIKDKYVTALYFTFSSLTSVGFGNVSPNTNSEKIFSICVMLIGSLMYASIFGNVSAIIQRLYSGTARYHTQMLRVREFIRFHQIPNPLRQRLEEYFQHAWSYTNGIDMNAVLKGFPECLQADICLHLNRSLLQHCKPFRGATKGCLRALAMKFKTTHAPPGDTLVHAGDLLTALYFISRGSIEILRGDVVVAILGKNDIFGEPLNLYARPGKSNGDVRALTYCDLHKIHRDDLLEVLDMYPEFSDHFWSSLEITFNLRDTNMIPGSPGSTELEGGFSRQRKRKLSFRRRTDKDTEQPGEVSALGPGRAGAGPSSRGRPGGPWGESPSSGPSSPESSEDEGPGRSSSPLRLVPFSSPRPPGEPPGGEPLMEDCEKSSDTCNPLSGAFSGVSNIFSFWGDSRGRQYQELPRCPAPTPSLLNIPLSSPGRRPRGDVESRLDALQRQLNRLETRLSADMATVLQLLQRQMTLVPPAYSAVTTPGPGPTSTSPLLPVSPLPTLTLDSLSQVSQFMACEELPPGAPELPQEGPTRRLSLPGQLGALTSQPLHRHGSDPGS
In short: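 hERG currents recorded by automated patch clamp at room temperature in CHO-K1 cells, 6-point cumulative concentrations. SyncroPatch runs used KF-based internal (pH 7.2) and NMDG-containing external solution (pH 7.4), 0.33% DMSO; QPatchII runs used 2% or 0.4% DMSO. Only wells meeting seal-resistance and current-size criteria kept.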

PCSK9 [4] = target: PCSK9 (Homo sapiens, UniProt Q8NBP7); test: Assay 2 Biophysical human PCSK9 assay (SPR, Biacore); type: binding; parameters: biotinylated human PCSK9 (31-692)-Avi-His6; His6 (C); settings: single-cycle kinetics, 30° C., geometric mean, read-out: Assay 2 (PCSK9 BIAcore DBA Cr) GMean Kd
PCSK9 (Homo sapiens, UniProt Q8NBP7), sequence (Q8NBP7 31-692): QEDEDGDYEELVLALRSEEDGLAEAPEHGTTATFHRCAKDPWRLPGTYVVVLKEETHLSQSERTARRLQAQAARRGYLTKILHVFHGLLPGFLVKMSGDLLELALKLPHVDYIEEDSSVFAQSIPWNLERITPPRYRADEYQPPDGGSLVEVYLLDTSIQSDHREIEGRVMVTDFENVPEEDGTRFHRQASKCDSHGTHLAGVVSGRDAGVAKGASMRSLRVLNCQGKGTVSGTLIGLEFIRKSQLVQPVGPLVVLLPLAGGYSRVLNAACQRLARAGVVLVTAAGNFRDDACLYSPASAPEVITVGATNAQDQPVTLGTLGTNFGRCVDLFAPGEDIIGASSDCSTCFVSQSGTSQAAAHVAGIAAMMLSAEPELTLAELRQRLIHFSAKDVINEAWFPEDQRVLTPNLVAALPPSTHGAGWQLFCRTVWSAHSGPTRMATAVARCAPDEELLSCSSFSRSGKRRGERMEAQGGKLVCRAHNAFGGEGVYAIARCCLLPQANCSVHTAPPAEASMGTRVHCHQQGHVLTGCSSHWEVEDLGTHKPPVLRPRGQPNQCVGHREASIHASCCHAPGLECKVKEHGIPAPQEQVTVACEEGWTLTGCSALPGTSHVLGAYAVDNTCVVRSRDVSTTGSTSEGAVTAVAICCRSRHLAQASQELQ
Procedure: The SPR binding experiments were performed on a Biacore S200 optical biosensor unit at 30° C. A Series S Sensor Chip SA that is designed to bind biotinylated molecules for interaction analysis in Biacore systems was equilibrated at room temperature prior to use. The running buffer for protein tethering and subsequent ligand binding experiments was 10 mM HEPES pH 7.4, 150 mM NaCl, 0.05% (v/v) Tween 20 pH 7.4.
For the surface tethering of PCSK9, biotinylated human PCSK9 (31-692)-Avi-His6 at a concentration of 0.5 mg/mL was used. Prior to the surface tethering, the surface was exposed to a solution of 50 mM NaOH, 500 mM NaCl via 3 consecutive injections of this solution with a contact time of 60 s and a flowrate of 10 μL min^−1 to remove non-conjugated streptavidin. The PCSK9 protein was diluted to a concentration of 20 μg/mL using running buffer and injected with a contact time of 180-300 s and a flowrate of 10 μL min^−1 over a single flow channel (typically flow channel 2 or flow channel 4) with the aim to achieve protein capture levels of >5000 response units (RU). Remaining biotin binding sites were blocked via 2 consecutive injections of a 10 μM D-biotin solution in running buffer with a contact time of 60 s and a flowrate of 10 μL min^−1 over all flow-channels. Flow-channels 1 and 3 typically served as a reference surface throughout the subsequent binding experiments.
The binding experiments were all performed at a flow rate of 30 PL min^−1 and by employing the method of single-cycle kinetics. This approach involves the sequential injection of a compound concentration series without regeneration steps. A contact time between 90-150 s was selected, which was followed by a 40 min dissociation phase to allow for a proper estimation of the dissociation rate constant. Test compounds were delivered in DMSO at a concentration of 10 mM and a digital dispenser HP D300 was used to set up the compound concentration series using 6 concentrations. The tested concentrations have been 30, 100, 300, 1000, 3000 and 10000 nM. Prior to injecting any compound, the surfaces were equilibrated by injecting running buffer over them in three separate pulses. The data collection rate was set to 10 Hz.
The raw sensorgrams of the compound injections were first subjected to reference subtraction (subtracting the signal from flow channel 1 and/or 3 from the signal from channels 2 and/or 4 respectively) and then blank subtraction (subtracting the signal from injecting DMSO controls from the reference subtracted data). The resulting double-referenced sensorgrams were then fitted using a 1:1 binding interaction model using the manufactures software package to extract kinetic- and affinity data. Active compounds have been defined by creating a detectable binding signal at the highest compound concentration ([…]) of 3 RUs. Kinetic- and affinity data on active compounds are only provided for those compounds where the binding signal at the highest compound concentration ([…]) is 50% of the theoretical maximum binding signal for a 1:1 binding interaction (Rmax, typically between 15-20 RUs) in order to enable a proper fitting of the data.

PCSK9 [5] = target: T1, PCSK9; test: Assay 3 PCSK9 LDL-C uptake assay in HepG2 cells; type: cell-based; parameters: TEV site (C); His6 (C); host or cells: added to HepG2 (ATCC #HB-8065); settings: 125 nM PCSK9, pHrodo Red-LDL, read-out: Assay 3 LDL uptake potency
Source text: This assay measures for PCSK9 antagonist activity based on a test compound's capacity to restore LDL-C-uptake in HepG2 cells. The assay is based on exogenous PCSK9 and LDL-C complexed with a pH-sensitive dye. Outside the cells, at neutral pH, the pHrodo Red-LDL is dimly fluorescent but upon LDLR mediated endocytosis it fluoresces brightly. PCSK9 traffics the LDLR to intracellular degradation and reduces uptake of LDL-C. Inhibition of PCSK9 reduces LDLR degradation and the increased LDL-C uptake is quantified by fluorescence microscopy.
• Cell medium: MEM supplemented with 10% FBS, 1×NEAA and Sodium Pyruvate • Assay medium: OptiMem supplemented with penicillin/streptomycin • Cells: HepG2 (ATCC #HB-8065)
• 1. Cryopreserved HepG2 cells were thawed in assay medium and centrifuged for 5 min at 250 g. Supernatant was discarded and the cell pellet resuspended in cell medium and counted with a Nucleocounter. Cells were again centrifuged 5 min at 250 g and the pellet was resuspended to 500000 cells/mL in assay medium. • 2. 20 μL of above cell mix was dispensed into black μclear TC treated 384 well plates with Multidrop Combi and left at room temperature for 20 minutes. • 3. Plates were incubated at 37° C., 5% CO2 for 24 h
• 1. Test compounds were prepared in concentration response in DMSO with a half-log dilution factor in DMSO in Echo 384 LDV plates starting at 10 mM. • 2. 30 nL of above test compounds were dispensed with Echo 655 to cells for a top concentration of 10 μM • 3. 10 μL PCSK9 in assay medium was dispensed to cells with Multidrop Combi for 125 nM final concentration in the wells. • 4. Plates were incubated at 37° C., 5% CO2 for 24 h
• 1. 10 μL pHrodo Red-LDL in assay medium was dispensed to cells with Multidrop Combi for […] • 2. Plates were incubated at 37° C., 5% CO2 and imaged with the Incucyte S3 after 4 h and 24 h
Image data was processed using Incucyte 2021, a software to identify cells and red fluorescent intensity. Screener was used to further process data. Data was normalized as % effect of the signal between median values of the on-plate controls of DMSO and 100 nM Evolocumab according to the formula % effect=−100*(x−DMSO)/(Evolocumab−DMSO) where x equals the measured signal. Concentration response data of the normalized values were fitted using a four-parameter logistic fit.

T1 sequence (Q8NBP7 with tags, fused parts or gaps V474I/G670E): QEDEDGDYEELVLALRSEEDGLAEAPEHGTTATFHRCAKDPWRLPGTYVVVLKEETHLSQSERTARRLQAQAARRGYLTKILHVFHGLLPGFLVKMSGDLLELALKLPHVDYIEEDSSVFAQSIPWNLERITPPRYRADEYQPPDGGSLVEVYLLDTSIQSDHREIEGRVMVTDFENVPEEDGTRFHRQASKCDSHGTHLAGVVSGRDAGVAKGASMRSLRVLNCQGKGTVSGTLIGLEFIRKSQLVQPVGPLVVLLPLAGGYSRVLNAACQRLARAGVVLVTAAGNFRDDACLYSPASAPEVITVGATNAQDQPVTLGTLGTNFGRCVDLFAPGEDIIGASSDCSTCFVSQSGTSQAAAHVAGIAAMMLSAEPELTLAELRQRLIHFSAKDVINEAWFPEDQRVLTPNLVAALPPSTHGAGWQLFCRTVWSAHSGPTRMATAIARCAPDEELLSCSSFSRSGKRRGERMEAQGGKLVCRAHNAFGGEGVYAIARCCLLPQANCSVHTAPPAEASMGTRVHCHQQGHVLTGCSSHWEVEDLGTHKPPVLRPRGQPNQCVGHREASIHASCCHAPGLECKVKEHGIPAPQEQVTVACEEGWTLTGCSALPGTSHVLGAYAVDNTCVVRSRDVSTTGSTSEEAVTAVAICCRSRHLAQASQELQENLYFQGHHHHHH

| Compound | IC50 (PCSK9 [1]) | IC50 [2] | IC50 [3] | Kd (PCSK9 [4]) | EC50 (PCSK9 [5]) |
| --- | --- | --- | --- | --- | --- |
| O=C(NCC(F)F)c1cnc(N[C@H]2CC[C@H](Nc3ccc(-n4ccccc4=O)cn3)C2)nn1 [Example 71, N-(2,2-Difluoroethyl)-3-(((1S,3S)-3-((2-oxo-2H-[1,3′-bipyridin]-6′-yl)amino)cyclopentyl)amino)-1,2,4-triazine-6-carboxamide] | 0.046 µM | > 10 µM | > 40 µM | 0.063 µM |  |
| O=C(NCCO)c1cnc(N[C@H]2CC[C@H](Nc3ccc(-n4ccccc4=O)cn3)C2)nn1 [Example 72, N-(2-Hydroxyethyl)-3-(((1S,3S)-3-((2-oxo-2H-[1,3′-bipyridin]-6′-yl)amino)cyclopentyl)amino)-1,2,4-triazine-6-carboxamide] | 0.205 µM | > 10 µM | > 40 µM | 0.17 µM |  |
| CCNC(=O)c1cnc(N[C@H]2CC[C@H](Nc3ccc(-n4ccccc4=O)cn3)C2)nn1 [Example 73, N-Ethyl-3-(((1S,3S)-3-((2-oxo-2H-[1,3′-bipyridin]-6′-yl)amino)cyclopentyl)amino)-1,2,4-triazine-6-carboxamide] | 0.075 µM | > 10 µM | > 40 µM | 0.048 µM |  |
| NC(=O)c1cnc(N[C@H]2CC[C@H](Nc3ccc(-n4ccccc4=O)cn3)C2)nn1 [Example 74, 3-(((1S,3S)-3-((2-Oxo-2H-[1,3′-bipyridin]-6′-yl)amino)cyclopentyl)amino)-1,2,4-triazine-6-carboxamide] | 0.085 µM | 8.3 µM | > 40 µM | 0.08 µM |  |
| CN(C)C(=O)c1cnc(N[C@H]2CC[C@H](Nc3ccc(-n4ccccc4=O)cn3)C2)nn1 [Example 76, N,N-Dimethyl-3-(((1S,3S)-3-((2-oxo-2H-[1,3′-bipyridin]-6′-yl)amino)cyclopentyl)amino)-1,2,4-triazine-6-carboxamide] | 0.485 µM | > 10 µM | > 40 µM | 0.125 µM |  |
| Cc1cnnc(N[C@H]2CC[C@H](Nc3ccc(-n4ccccc4=O)cn3)C2)n1 [Example 126, 6′-(((1S,3S)-3-((5-Methyl-1,2,4-triazin-3-yl)amino)cyclopentyl)amino)-2H-[1,3′-bipyridin]-2-one] | 0.744 µM | > 10 µM | > 40 µM | 0.954 µM |  |
| Cc1nnc(N[C@H]2CC[C@H](Nc3ccc(-n4ccccc4=O)cn3)C2)nc1C [Example 127, 6′-(((1S,3S)-3-((5,6-Dimethyl-1,2,4-triazin-3-yl)amino)cyclopentyl)amino)-2H-[1,3′-bipyridin]-2-one] | 0.193 µM | > 10 µM | > 40 µM | 0.248 µM |  |
| Cc1cnc(N[C@H]2CC[C@H](Nc3ccc(-n4cc(-c5c[nH]nn5)ccc4=O)cn3)C2)nn1 [Example 208, 6′-(((1S,3S)-3-((6-Methyl-1,2,4-triazin-3-yl)amino)cyclopentyl)amino)-5-(1H-1,2,3-triazol-4-yl)-2H-[1,3′-bipyridin]-2-one] | 0.0065 µM | 1.71 µM | > 40.1 µM |  | 0.3 µM |
| Cc1cnc(N[C@H]2CC[C@H](Nc3ccc(-n4c(=O)n(C)c5cc(C#N)ccc54)cn3)C2)nn1 [Example 211, 3-Methyl-1-(6-(((1S,3S)-3-((6-methyl-1,2,4-triazin-3-yl)amino)cyclopentyl)amino)pyridin-3-yl)-2-oxo-2,3-dihydro-1H-benzo[d]imidazole-5-carbonitrile] | 0.0014 µM | > 10 µM | 16.5 µM |  | 0.1 µM |
| Cc1cnc(N[C@H]2CC[C@H](Nc3ccc(-n4c(=O)n(C)c5ccc(C#N)nc54)cn3)C2)nn1 [Example 213, 1-Methyl-3-(6-(((1S,3S)-3-((6-methyl-1,2,4-triazin-3-yl)amino)cyclopentyl)amino)pyridin-3-yl)-2-oxo-2,3-dihydro-1H-imidazo[4,5-b]pyridine-5-carbonitrile] | 0.0016 µM | > 10 µM | > 40.1 µM |  | 0.2 µM |
| Cc1cnc(N[C@H]2CC[C@H](Nc3ccc(-n4c(=O)n(C)c5cc(C#N)cnc54)cn3)C2)nn1 [Example 214, 1-Methyl-3-(6-(((1S,3S)-3-((6-methyl-1,2,4-triazin-3-yl)amino)cyclopentyl)amino)pyridin-3-yl)-2-oxo-2,3-dihydro-1H-imidazo[4,5-b]pyridine-6-carbonitrile] | 0.0034 µM | > 10 µM | > 40.1 µM |  | 0.7 µM |
| COc1ccnn(-c2ccc(N[C@H]3CC[C@H](Nc4ncc(C)nn4)C3)nc2)c1=O [Example 220, 4-Methoxy-2-(6-(((1S,3S)-3-((6-methyl-1,2,4-triazin-3-yl)amino)cyclopentyl)amino)pyridin-3-yl)pyridazin-3(2H)-one] | 0.0017 µM | > 10 µM | > 200 µM |  | 0.2 µM |
| Cc1cnc(N[C@H]2CC[C@H](Nc3ccc(-n4nccc(OC(F)F)c4=O)cn3)C2)nn1 [Example 281, 4-(Difluoromethoxy)-2-(6-(((1S,3S)-3-((6-methyl-1,2,4-triazin-3-yl)amino)cyclopentyl)amino)pyridin-3-yl)pyridazin-3(2H)-one] | 0.0025 µM | > 10 µM | > 40.1 µM |  | 0.3 µM |
